Test results taken from US9617244B2, “Antibacterial quinoline derivatives” (JANSSEN PHARMACEUTICA NV, priority 2012, dated 2017).
≈ marks a conversion by molar mass, not a printed value.

What was measured:
[1] = system: Staphylococcus aureus (ATCC29213); test: In-vitro anti-bacterial activity, microtitre plate assay, IC90 determination (non-mycobacterial strains); assay type: cell-based; settings: 90% inhibitory concentration for bacterial growth, resazurin fluorescence; for IC90 STA B29213: 24 hours; for IC90: Staphylococcus aureus, ATCC29213, 24 h, read-out: IC90 STA B29213
Method in brief: (§1)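 Inoculum of about 100 TCID50 (10–60 CFU/well) in Mueller-Hinton broth, serial five-fold compound dilutions, 24 h at 37 °C in air. Growth read by resazurin fluorescence (ex 530/em 590 nm); IC90 in μg/ml as 90% growth inhibition.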

[2] = system: Streptococcus pneumoniae (ATCC6305); test: as above; assay type: cell-based; settings: 90% inhibitory concentration for bacterial growth, resazurin fluorescence; for IC90: Streptococcus pneumoniae, ATCC6305, 24 h, read-out: IC90 SPN 6305; for IC90 SPN 6305: 24 hours
Method in brief: as §1

[3] = system: Mycobacterium smegmatis (ATCC607); test: In-vitro anti-bacterial activity against strain M. Smegmatis ATCC607; assay type: cell-based; settings: 90% inhibitory concentration for bacterial growth, Alamar Blue fluorescence; for IC90 MSM 607: 48 hours; for IC90: Mycolicibacterium smegmatis, ATCC607, 48 h, read-out: IC90 MSM 607
Method in brief: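 Serial five-fold compound dilutions in BSA-supplemented wells, inoculated with ~250 CFU/well in Mueller-Hinton broth, incubated 48 h at 37 °C, 5% CO2. Growth read by Alamar Blue fluorescence (ex 530/em 590 nm); IC90 in μg/ml.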

SMILES | IC90 STA B29213 [1] [µg/mL] | IC90 [2] [µg/mL] | IC90 MSM 607 [3] [µg/mL] | melting point [°C] | IC90 [1] [µg/mL] | IC90 [3] [µg/mL] | IC90 SPN 6305 [2] [µg/mL]
COc1nc2ccc(-c3cccnc3)cc2cc1C(c1cccc(Cl)c1)C1(O)CCNC(Cc2ccccc2)C1 (centres unmarked) [Compound 15] | 1.74 (≈ 3.16 µM) | 6.93 (≈ 12.6 µM) | 1.38 (≈ 2.51 µM) | 220 | – | – | –
COc1nc2ccc(Br)cc2cc1C(c1cccc(Cl)c1)C1(O)CCNC(Cc2ccccc2)C1 (centres unmarked) [Compound 35] | – | 4.37 (≈ 7.92 µM) | – | – | 2.76 (≈ 5 µM) | 2.19 (≈ 3.97 µM) | –
COc1nc2ccc(S(C)(=O)=O)cc2cc1C(c1ccc(Cl)cc1)C1(O)CCNC(Cc2ccccc2)C1 (centres unmarked) [Compound 38] | 3.48 (≈ 6.31 µM) | 6.94 (≈ 12.6 µM) | 3.48 (≈ 6.31 µM) | 130 | – | – | –
COc1nc2ccc(Br)cc2cc1C(c1ccc(Cl)cc1)C1(O)CCNC(Cc2ccc(F)c(F)c2)C1 (centres unmarked) [Compound 39] | – | 5.24 (≈ 8.91 µM) | – | 106 | 1.17 (≈ 1.99 µM) | 0.93 (≈ 1.58 µM) | –
O=c1[nH]c2ccc(Br)cc2cc1C(c1ccc(Cl)cc1)C1(O)CCNC(Cc2ccc(F)c(F)c2)C1 (centres unmarked) [Compound 40] | – | 6.83 (≈ 11.9 µM) | – | – | 3.42 (≈ 5.96 µM) | 1.93 (≈ 3.36 µM) | –
COc1nc2ccc(Br)cc2cc1C(c1ccc(Cl)cc1)C1(O)CCNCC1Cc1ccccc1 (centres unmarked) [Compound 41] | 3.48 (≈ 6.31 µM) | – | 3.48 (≈ 6.31 µM) | – | – | – | 6.95 (≈ 12.6 µM)
O=c1[nH]c2ccc(Br)cc2cc1C(c1cccc(Cl)c1)C1(O)CCNC(Cc2ccccc2)C1 (centres unmarked) [Compound 86] | 1.82 (≈ 3.38 µM) | 4.56 (≈ 8.48 µM) | 4.07 (≈ 7.57 µM) | – | – | – | –
CSc1nc2ccc(Br)cc2cc1C(c1ccc(Cl)cc1)C1(O)CCNC(Cc2ccccc2)C1 (centres unmarked) [Compound 87] | 3.58 (≈ 6.3 µM) | 7.15 (≈ 12.6 µM) | 2.85 (≈ 5.02 µM) | 227 | – | – | –
CSc1nc2ccc(Br)cc2cc1C(c1ccc(Cl)cc1)C1(O)CCNC(Cc2ccccc2)C1 (centres unmarked) [Compound 88] | 2.63 (≈ 4.63 µM) | – | 1.66 (≈ 2.92 µM) | – | – | – | 8.32 (≈ 14.6 µM)
COc1nc2ccc(SC)cc2cc1C(c1ccc(Cl)cc1)C1(O)CCNC(Cc2ccccc2)C1 (centres unmarked) [Compound 90] | – | 8 (≈ 15.4 µM) | – | – | 3.18 (≈ 6.13 µM) | 3.18 (≈ 6.13 µM) | –
COc1nc2ccc(SC)cc2cc1C(c1ccc(Cl)cc1)C1(O)CCNC(Cc2ccccc2)C1 (centres unmarked) [Compound 91] | 1.64 (≈ 3.16 µM) | – | 1.64 (≈ 3.16 µM) | 214 | – | – | 4.63 (≈ 8.92 µM)
COc1nc2ccc(SC)cc2cc1C(c1ccc(Cl)cc1)C1(O)CCNC(Cc2ccccc2)C1 (centres unmarked) [Compound 93] | 3.18 (≈ 6.13 µM) | – | 2.01 (≈ 3.87 µM) | – | – | – | 5.66 (≈ 10.9 µM)
COc1nc2ccc(Cl)cc2cc1C(c1ccc(Cl)cc1)C1(O)CCNC(Cc2ccccc2)C1 (centres unmarked) [Compound 94] | 3.13 (≈ 6.17 µM) | 4.95 (≈ 9.75 µM) | 1.76 (≈ 3.47 µM) | – | – | – | –
COc1nc2ccc(Br)cc2cc1C(c1ccc(SC)cc1)C1(O)CCNC(Cc2ccccc2)C1 (centres unmarked) [Compound 98] | 1.78 (≈ 3.16 µM) | 6.32 (≈ 11.2 µM) | 1.12 (≈ 1.99 µM) | – | – | – | –
COc1nc2ccc(Br)cc2cc1C(c1ccc(SC)cc1)C1(O)CCNC(Cc2ccccc2)C1 (centres unmarked) [Compound 101] | 3.56 (≈ 6.32 µM) | – | 1.59 (≈ 2.82 µM) | – | – | – | 6.32 (≈ 11.2 µM)
COc1nc2ccc(Br)cc2cc1C(c1ccc(Cl)cc1)C1(O)CCNC(Cc2ccc(F)c(F)c2)C1 (centres unmarked) [Compound 113] | 2.02 (≈ 3.44 µM) | – | 1.01 (≈ 1.72 µM) | – | – | – | 4.04 (≈ 6.87 µM)
COc1nc2ccc(Br)cc2cc1C(c1ccc(Cl)cc1)C1(O)CCNCC1Cc1ccccc1 (centres unmarked) [Compound 114] | – | 4.38 (≈ 7.94 µM) | 0.98 (≈ 1.78 µM) | – | 1.75 (≈ 3.17 µM) | – | –
COc1nc2ccc(Br)cc2cc1C(c1ccc(C#N)cc1)C1(O)CCNC(Cc2ccccc2)C1 (centres unmarked) [Compound 115] | – | 4.16 (≈ 7.67 µM) | – | – | 3.3 (≈ 6.08 µM) | 2.08 (≈ 3.83 µM) | –

SMILES | IC90 STA B29213 [1] [µg/mL] | IC90 [2] [µg/mL] | IC90 MSM 607 [3] [µg/mL] | melting point [°C] | IC90 [1] [µg/mL] | IC90 [3] [µg/mL] | IC90 SPN 6305 [2] [µg/mL]
COc1nc2ccc(Br)cc2cc1C(c1ccc(Cl)cc1)C1(O)CCNCC1Cc1ccccc1 (centres unmarked) [Compound 117] | – | 5.52 (≈ 10 µM) | – | – | 3.48 (≈ 6.31 µM) | 2.77 (≈ 5.02 µM) | –
O=c1[nH]c2ccc(Br)cc2cc1[C@@H](c1ccc(Cl)cc1)[C@]1(O)CCNC(Cc2ccccc2)C1 (some centres unmarked) [Compound 121] | – | 3.62 (≈ 6.73 µM) | – | – | 3.62 (≈ 6.73 µM) | 3.62 (≈ 6.73 µM) | –
O=c1[nH]c2ccc(Br)cc2cc1[C@@H](c1ccc(Cl)cc1)[C@]1(O)CCNC(Cc2ccccc2)C1 (some centres unmarked) [Compound 122] | 2.88 (≈ 5.35 µM) | – | 3.62 (≈ 6.73 µM) | – | – | – | 3.62 (≈ 6.73 µM)
COc1nc2ccc(Cl)cc2cc1C(c1ccc(Cl)cc1)C1(O)CCNCC1F (centres unmarked) [Compound 451] | 5.48 (≈ 12.6 µM) | – | 2.18 (≈ 5.01 µM) | 110 | – | – | –
COc1nc2ccc(Cl)cc2cc1C(c1ccc(Cl)cc1)C1(O)CCNCC1F (centres unmarked) [Compound 452] | 9.75 (≈ 22.4 µM) | – | 4.35 (≈ 9.99 µM) | 114 | – | – | –
COc1nc2ccc(Cl)cc2cc1C(c1ccc(Cl)cc1)C1(O)CCNCC1F (centres unmarked) [Compound 453] | – | – | 2.75 (≈ 6.32 µM) | 210 | 5.48 (≈ 12.6 µM) | – | –
COc1nc2ccc(Cl)cc2cc1C(c1ccc(Cl)cc1)C1(O)CCNCC1F (centres unmarked) [Compound 454] | 10.94 (≈ 25.1 µM) | – | 4.35 (≈ 9.99 µM) | 186 | – | – | –
COc1nc2ccc(Cl)cc2cc1C(c1ccc(Cl)cc1)C1(O)CCNCC1F (centres unmarked) [Compound 455] | 7.74 (≈ 17.8 µM) | – | 5.48 (≈ 12.6 µM) | 118 | – | – | –
COc1nc2ccc(Cl)cc2cc1C(c1ccc(Cl)cc1)C1(O)CCNCC1F (centres unmarked) [Compound 456] | 10.94 (≈ 25.1 µM) | – | 10.94 (≈ 25.1 µM) | 115 | – | – | –
COc1nc2ccc(S(C)(=O)=O)cc2cc1C(c1ccc(Cl)cc1)C1(O)CCNC(c2ccc3ccccc3c2)C1 (centres unmarked) [Compound 459] | 13.14 (≈ 22.4 µM) | – | 3.70 (≈ 6.3 µM) | 211 | – | – | –
COc1nc2ccc(S(C)(=O)=O)cc2cc1C(c1ccc(Cl)cc1)C1(O)CCNC(c2ccc3ccccc3c2)C1 (centres unmarked) [Compound 460] | 3.70 (≈ 6.3 µM) | – | 1.86 (≈ 3.17 µM) | 197 | – | – | –
COc1nc2ccc(S(C)(=O)=O)cc2cc1C(c1ccc(Cl)cc1)C1(O)CCNC(c2ccc3ccccc3c2)C1 (centres unmarked) [Compound 461] | 2.62 (≈ 4.46 µM) | – | 1.47 (≈ 2.5 µM) | 208 | – | – | –
COc1nc2ccc(S(C)(=O)=O)cc2cc1C(c1ccc(Cl)cc1)C1(O)CCNC(c2ccc3ccccc3c2)C1 (centres unmarked) [Compound 462] | 1.86 (≈ 3.17 µM) | – | 0.93 (≈ 1.58 µM) | 192 | – | – | –
COc1nc2ccc(S(C)(=O)=O)cc2cc1C(c1ccc(Cl)cc1)C1(O)CCNC(c2ccc3ccccc3c2)C1 (centres unmarked) [Compound 463] | 14.75 (≈ 25.1 µM) | – | 2.34 (≈ 3.99 µM) | 160 | – | – | –
COc1nc2ccc(S(C)(=O)=O)cc2cc1C(c1ccc(Cl)cc1)C1(O)CCNC(c2ccc3ccccc3c2)C1 (centres unmarked) [Compound 464] | 1.47 (≈ 2.5 µM) | – | 1.17 (≈ 1.99 µM) | 154 | – | – | –
COc1nc2ccc(S(C)(=O)=O)cc2cc1C(c1ccc(Cl)cc1)C1(O)CCNC(c2ccc3ccccc3c2)C1 (centres unmarked) [Compound 465] | 5.87 (≈ 10 µM) | – | 2.62 (≈ 4.46 µM) | 168 | – | – | –
COc1nc2ccc(S(C)(=O)=O)cc2cc1C(c1ccc(Cl)cc1)C1(O)CCNC(c2ccc3ccccc3c2)C1 (centres unmarked) [Compound 466] | 3.70 (≈ 6.3 µM) | – | 1.47 (≈ 2.5 µM) | 188 | – | – | –
COc1nc2ccc(Cl)cc2cc1C(c1ccc(Cl)cc1)C1(O)CCNC(Cc2cccnc2)C1 (centres unmarked) [Compound 467] | – | – | – | 148 | 3.21 (≈ 6.31 µM) | 2.55 (≈ 5.02 µM) | –
